Test results: the supplement of paper PMC7840683
Where a name gives a salt, the structure may show the parent alone. ± gives the standard deviation of the averaged measurements.

System: HepaRG
Assay: LDH release cytotoxicity, % of total lysis control; higher = more cytotoxic
Details: 48 h
Outline: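 Duplicate wells of single-lot HepaRG cells, grown on collagen I-coated 96-well plates, received eight-point half-log series of test chemicals with 100 µM as the top concentration. Exposure lasted 48 h in serum-free induction medium with 0.5% DMSO, while total lysis wells received 0.1% Triton X. Resorufin fluorescence (CytoTox-ONE, Tecan Safire) was used to quantify LDH leaked into 50 µL of spent medium. Values for percent cytotoxicity were normalized to on-plate vehicle and total lysis controls and averaged across the duplicates.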

NC(=O)N1c2ccccc2C=Cc2ccccc21 [Carbamazepine]
Details	LDH release cytotoxicity [%]
0.03162 µM	-0.712 ± 0.62
0.1 µM	-0.993 ± 0.65
0.3162278 µM	-1.39 ± 0.76
1 µM	-0.89 ± 0.085
3.16228 µM	-0.514 ± 0.98
10 µM	-1.28 ± 0.24
31.6228 µM	-1.043 ± 0.0064
100 µM	0.39 ± 0.34

CCCCCCCCCCC [Undecane]
Details	LDH release cytotoxicity [%]
0.031623 µM	-1.34 ± 0.15
0.1 µM	-0.1 ± 0.21
0.316228 µM	-2.37 ± 1.8
1 µM	-2.3 ± 0.12
3.16228 µM	-2.08 ± 1.2
10 µM	-0.723 ± 1.2
31.6228 µM	-0.989 ± 1.3
100 µM	1.06 ± 0.61

Clc1nc(Cl)c(Cl)c(Cl)c1Cl [Pentachloropyridine]
Details	LDH release cytotoxicity [%]
0.03162 µM	-0.545 ± 0.73
0.1 µM	-1.54 ± 0.25
0.3162278 µM	-1.28 ± 1.4
1 µM	-1.08 ± 1.1
3.16228 µM	-0.873 ± 0.5
10 µM	-1.56 ± 0.52
31.6228 µM	-0.833 ± 0.26
100 µM	0.716 ± 0.84

CCCCC(CC)CO (centres undefined) [2-Ethyl-1-hexanol]
Details	LDH release cytotoxicity [%]
0.0320971 µM	-0.547 ± 0.26
0.1015 µM	-0.771 ± 0.15
0.320971 µM	-0.413 ± 0.19
1.015 µM	-0.597 ± 0.57
3.2097118 µM	0.185 ± 0.13
10.15 µM	0.421 ± 0.39
32.0971 µM	0.242 ± 0.43
101.5 µM	0.842 ± 0.13

N=C(N)c1ccc(OCCCCCOc2ccc(C(=N)N)cc2)cc1 [Pentamidine isethionate]
Details	LDH release cytotoxicity [%]
0.0276699 µM	-1.83 ± 0.92
0.0875 µM	-2.81 ± 0.69
0.276699 µM	-2.72 ± 0.49
0.875 µM	-3.54 ± 0.15
2.76699 µM	-2.52 ± 0.068
8.75 µM	19 ± 1.4
27.6699 µM	68.9 ± 1
87.5 µM	73.7 ± 2

CN(C)CCO [Dimethylaminoethanol]
Details	LDH release cytotoxicity [%]
0.03162 µM	0.182 ± 0.62
0.1 µM	-0.302 ± 1.6
0.3162278 µM	-0.0529 ± 0.18
1 µM	-1.37 ± 0.049
3.16228 µM	-1.09 ± 1.8
10 µM	-1.02 ± 0.62
31.6228 µM	-0.601 ± 0.24
100 µM	1.07 ± 0.52

COS(=O)(=O)OC [Dimethyl sulfate]
Details	LDH release cytotoxicity [%]
0.03162 µM	-0.536 ± 0.23
0.1 µM	-0.931 ± 0.64
0.3162278 µM	-1.52 ± 1
1 µM	-1.6 ± 0.65
3.16228 µM	-1.18 ± 0.15
10 µM	-0.291 ± 0.98
31.6228 µM	-1.17 ± 1.2
100 µM	3.53 ± 0.11

c1ccc2c(c1)ccc1ccccc12 [Phenanthrene]
Details	LDH release cytotoxicity [%]
0.03162 µM	-0.492 ± 0.39
0.1 µM	-0.112 ± 0.47
0.3162278 µM	-1.07 ± 0.35
1 µM	-1.03 ± 0.62
3.16228 µM	-1.55 ± 0.095
10 µM	-0.467 ± 0.087
31.6228 µM	-0.00782 ± 0.7
100 µM	0.23 ± 0.29

CCCCCCCCCCCCN1CCCC1=O [1-Dodecyl-2-pyrrolidinone]
Details	LDH release cytotoxicity [%]
0.031623 µM	-0.38 ± 1.3
0.1 µM	-0.917 ± 1.2
0.316228 µM	-3 ± 1.8
1 µM	-2.75 ± 1
3.16228 µM	-3.37 ± 2
10 µM	-2.86 ± 0.27
31.6228 µM	-2.4 ± 0.15
100 µM	0.295 ± 0.75

Clc1ccc(C(Cl)(Cl)Cl)cc1 [4-Chlorobenzotrichloride]
Details	LDH release cytotoxicity [%]
0.03162 µM	-1.85 ± 0.71
0.1 µM	-1.72 ± 0.36
0.3162278 µM	-2.4 ± 0.4
1 µM	-1.68 ± 1.3
3.16228 µM	-1.91 ± 0.86
10 µM	-1.134 ± 0.011
31.6228 µM	-0.341 ± 0.31
100 µM	27.7 ± 9.1

N#CSCSC#N [Methylene bis(thiocyanate)]
Details	LDH release cytotoxicity [%]
0.03162 µM	0.59 ± 0.13
0.1 µM	0.474 ± 0.14
0.3162278 µM	-0.978 ± 0.4
1 µM	-0.877 ± 0.43
3.16228 µM	-0.508 ± 0.021
10 µM	0.525 ± 0.24
31.6228 µM	3.74 ± 0.86
100 µM	66.1 ± 1.7

CON(C)C(=O)Nc1ccc(Cl)c(Cl)c1 [Linuron]
Details	LDH release cytotoxicity [%]
0.03162 µM	-1.04 ± 0.089
0.1 µM	-1.18 ± 0.7
0.3162278 µM	-1.18 ± 0.5
1 µM	-0.927 ± 0.94
3.16228 µM	-1.44 ± 0.95
10 µM	-0.708 ± 0.44
31.6228 µM	0.755 ± 1
100 µM	0.919 ± 1.2

O=C(O)Cc1cc(I)c(Oc2ccc(O)c(I)c2)c(I)c1 [Tiratricol]
Details	LDH release cytotoxicity [%]
0.03162 µM	1.48 ± 0.13
0.1 µM	1.09 ± 1.1
0.3162278 µM	1.5 ± 1.1
1 µM	0.13 ± 0.074
3.16228 µM	0.965 ± 0.74
10 µM	0.402 ± 0.0063
31.6228 µM	-0.312 ± 0.0079
100 µM	21.5 ± 18

O=C(O)c1ccccc1 [Sodium benzoate]
Details	LDH release cytotoxicity [%]
0.031623 µM	0.689 ± 0.63
0.1 µM	-2.13 ± 1.3
0.316228 µM	-2.23 ± 0.31
1 µM	-3.15 ± 0.39
3.16228 µM	-2.88 ± 0.63
10 µM	-2.37 ± 0.27
31.6228 µM	-1.36 ± 0.096
100 µM	-0.292 ± 1.2

CCON=C(CC)C1C(=O)CC(c2c(C)cc(C)cc2C)CC1=O (centres undefined) [Tralkoxydim]
Details	LDH release cytotoxicity [%]
0.03162 µM	-1.61 ± 1.5
0.1 µM	-2.54 ± 0.76
0.3162278 µM	-2.84 ± 0.85
1 µM	-1.69 ± 0.41
3.16228 µM	-3.18 ± 0.7
10 µM	-2.04 ± 0.19
31.6228 µM	-1.88 ± 0.12
100 µM	-0.758 ± 0.81

COC(=O)CSc1cc(N=c2sc(=O)n3n2CCCC3)c(F)cc1Cl [Fluthiacet-methyl]
Details	LDH release cytotoxicity [%]
0.03162 µM	-1.78 ± 1.1
0.1 µM	-2.67 ± 1
0.3162278 µM	-1.91 ± 1
1 µM	-1.73 ± 0.018
3.16228 µM	-1.61 ± 0.37
10 µM	-1.57 ± 0.3
31.6228 µM	-0.786 ± 0.091
100 µM	0.903 ± 0.25

O=C(O)c1cc(Oc2ccc(C(F)(F)F)cc2Cl)ccc1[N+](=O)[O-] [5-(2-Chloro-4-(trifluoromethyl)phenoxy)-2-nitrobenzoic acid]
Details	LDH release cytotoxicity [%]
0.03162 µM	-0.08 ± 0.59
0.1 µM	-1.4 ± 0.2
0.3162278 µM	-0.769 ± 0.18
1 µM	-1.39 ± 0.35
3.16228 µM	-0.738 ± 0.35
10 µM	-0.0876 ± 0.044
31.6228 µM	0.334 ± 0.06
100 µM	2.95 ± 0.47

CCOP(=S)(OCC)SCn1c(=O)oc2cc(Cl)ccc21 [Phosalone]
Details	LDH release cytotoxicity [%]
0.03162 µM	-2.44 ± 0.92
0.1 µM	-3.01 ± 0.25
0.3162278 µM	-2.19 ± 0.66
1 µM	-2.28 ± 0.84
3.16228 µM	-2.21 ± 0.19
10 µM	-2.4 ± 0.9
31.6228 µM	-1.63 ± 1.2
100 µM	-1.09 ± 0.67

O=C1C2(Cl)C3(Cl)C4(Cl)C(Cl)(Cl)C5(Cl)C3(Cl)C1(Cl)C5(Cl)C24Cl (centres undefined) [Kepone]
Details	LDH release cytotoxicity [%]
0.03162 µM	-0.309 ± 0.28
0.1 µM	0.458 ± 0.64
0.3162278 µM	-0.526 ± 0.16
1 µM	-0.604 ± 0.8
3.16228 µM	-0.552 ± 0.22
10 µM	-0.815 ± 0.31
31.6228 µM	8.06 ± 1.2
100 µM	90.1 ± 3.4

ClC1C(Cl)C(Cl)C(Cl)C(Cl)C1Cl (stereo not drawn) [beta-Hexachlorocyclohexane]
Details	LDH release cytotoxicity [%]
0.03162 µM	-4.28 ± 0.89
0.1 µM	-4.78 ± 1.2
0.3162278 µM	-4.47 ± 0.78
1 µM	-4.51 ± 0.96
3.16228 µM	-3.52 ± 0.096
10 µM	-2.88 ± 0.6
31.6228 µM	-2.3 ± 2
100 µM	-0.552 ± 0.4

Clc1ccccc1C(c1ccccc1)(c1ccccc1)n1ccnc1 [Clotrimazole]
Details	LDH release cytotoxicity [%]
0.03162 µM	-0.964 ± 0.54
0.1 µM	-0.87 ± 0.1
0.3162278 µM	-1.49 ± 0.34
1 µM	-1.36 ± 0.98
3.16228 µM	-0.966 ± 0.17
10 µM	4.28 ± 0.79
31.6228 µM	11.6 ± 2.4
100 µM	82.1 ± 1.4

Clc1cccc(C(Cl)(Cl)Cl)n1 [Nitrapyrin]
Details	LDH release cytotoxicity [%]
0.031623 µM	-0.0337 ± 1.6
0.1 µM	-0.859 ± 0.33
0.316228 µM	-1.7 ± 1.4
1 µM	-2.43 ± 0.29
3.16228 µM	-2.02 ± 0.78
10 µM	-1.29 ± 0.76
31.6228 µM	-1.63 ± 1.3
100 µM	1.2 ± 0.065

Cc1[nH]nc2c1N=C(c1ccccc1Cl)c1cc([N+](=O)[O-])ccc1N2
Details	LDH release cytotoxicity [%]
0.03162 µM	-0.496 ± 0.19
0.1 µM	-1.12 ± 0.7
0.3162278 µM	-0.522 ± 0.35
1 µM	2.66 ± 0.69
3.16228 µM	5.42 ± 0.45
10 µM	4.54 ± 0.36
31.6228 µM	7.8 ± 1.1
100 µM	40.5 ± 3.8

COc1ccc(-n2nc(C(F)F)cc2-c2ccc(S(C)=O)cc2)cc1 (centres undefined) [Difpas-pyrazole]
Details	LDH release cytotoxicity [%]
0.03162 µM	-0.159 ± 0.56
0.1 µM	-0.696 ± 1.1
0.3162278 µM	-0.216 ± 0.65
1 µM	-0.962 ± 0.34
3.16228 µM	0.006 ± 0.28
10 µM	0.216 ± 0.15
31.6228 µM	0.847 ± 0.57
100 µM	78.66 ± 0.17

COCCOCC(CC1(C(=O)NC2CCC(C(=O)O)CC2)CCCC1)C(=O)Oc1ccc2c(c1)CCC2 (centres undefined) [Candoxatril]
Details	LDH release cytotoxicity [%]
0.03162 µM	-0.831 ± 0.098
0.1 µM	-1.91 ± 0.43
0.3162278 µM	-0.642 ± 0.1
1 µM	-1.61 ± 0.11
3.16228 µM	-1.03 ± 0.12
10 µM	-0.79 ± 0.29
31.6228 µM	-0.798 ± 0.39
100 µM	0.54 ± 0.26

CN1CCCC1c1cccnc1 (centres undefined) [Nicotine]
Details	LDH release cytotoxicity [%]
0.031623 µM	0.0561 ± 0.16
0.1 µM	-2.6 ± 0.49
0.316228 µM	-2.47 ± 0.26
1 µM	-2.55 ± 0.14
3.16228 µM	-2.4 ± 0.23
10 µM	-2.95 ± 0.78
31.6228 µM	-1.31 ± 0.45
100 µM	0.154 ± 0.86

CC1=NC(=S)NC(=O)C1 [6-Methyl-2-thiouracil]
Details	LDH release cytotoxicity [%]
0.03162 µM	-1.61 ± 0.11
0.1 µM	-0.548 ± 0.32
0.3162278 µM	0.567 ± 0.55
1 µM	0.268 ± 0.56
3.16228 µM	0.0334 ± 0.84
10 µM	0.892 ± 0.68
31.6228 µM	0.733 ± 1.8
100 µM	0.731 ± 1.2

Cn1cc(-c2ccccc2)c(=O)c(-c2cccc(C(F)(F)F)c2)c1 [1-Methyl-3-phenyl-5-(3-(trifluoromethyl)phenyl)-4-pyridone]
Details	LDH release cytotoxicity [%]
0.02893 µM	-1.78 ± 0.74
0.0915 µM	-1.31 ± 0.83
0.289348 µM	-1.94 ± 0.24
0.915 µM	-2.56 ± 0.53
2.89348 µM	-2.08 ± 0.3
9.15 µM	-2.29 ± 0.32
28.9348 µM	-1.81 ± 0.048
91.5 µM	20.3 ± 0.7
